# Experimental data published in patent US10582707B2, “Antimicrobial antibacterial and spore germination inhibiting activity from an avocado extract enriched in bioactive compounds” (priority 2010, dated 2020).
# Key:
# [1] = test system: Clostridium sporogenes (ATCC 7955) heat shocked spores; assay: microbe, parasite or virus in culture; type: cell-based; settings: ATCC7955, isolated compounds at 0.5 mg/ml, read-out: Disc Inhibition Zone, Heat Shocked Spores
# Method: (§1) For the antibacterial evaluations, adjusted solutions (5 μL) were transferred to sterile 6-mm diameter discs made from Whatman no. 1 filter paper, so that after solvent evaporation each disc contained 12.5 μg of solids from the enriched avocado seed extract. Experimental controls were treated under the same conditions that the extracts and included negative control discs that contained 5 μL of acetone, and for positive control discs 5 μL of a nisin solution (30 mg/ml in sterile water) were added to provide a residual concentration of 150 μg of nisin in each disc. All test discs were left for about 1-2 hr in a Biological Safety Cabinet to evaporate the solvent. Suspensions of about 0.1 optical density (at 600 nm) containing approximately 1 to 2×10^8 CFU/ml of Clostridium sporogenes (ATCC 7955) vegetative cells, isolated native spores or isolated heat shocked spores were prepared as described in official protocols of Health Canada (Food Directorate, 2010). Aliquots of the suspensions (100 μL) were transferred to Petri dishes containing 15 ml of solid medium (TPGY medium) and spread evenly with a sterile plastic rod. Four discs, each containing 12.5 μg of the test extract, and two more discs (one solvent blank and one nisin positive control) were placed each dish and incubated at 37° C. under anaerobic conditions. The diameter of the inhibition zones (cm) around the discs were measured after 36 hrs.
# [2] = test system: Clostridium sporogenes (ATCC 7955) vegetative cells; assay: microbe, parasite or virus in culture; type: cell-based; settings: for zone of inhibition at 500 µg/mL: Clostridium sporogenes, ATCC7955, isolated compounds at 0.5 mg/ml, read-out: Disc Inhibition Zone, Vegetative Cells
# Method: as §1
# [3] = test system: vegetative cells of Listeria monocytogenes; assay: Disc inhibition zone, Listeria monocytogenes at refrigeration and optimum temperature; type: cell-based; settings: 0.5 mg/ml
# [4] = test system: Colletotrichum gloeosporioides; settings: cited from earlier work
# [5] = test system: silkworm larvae Bombyx mori L.; settings: in vivo; cited from earlier work
# [6] = test system: Spodoptera exigua; settings: in vivo; cited from earlier work
# [7] = test system: lactating mammary gland and myocardial fibers of mice; settings: cited from earlier work
# [8] = test system: heat shocked spores from C. sporogenes; assay: MIC and MBC, heat shocked spores; type: cell-based; settings: Clostridium sporogenes, Example 11 method (Tables 6 and 10)
# Method: In order to further characterize the antibacterial activities of the fractions with the highest activity, it was important to determine their minimum inhibitory concentration (MIC), defined as the lowest concentration of an antimicrobial that will inhibit the visible growth of a microorganism after overnight incubation. […] But in the case of heat-shocked spores, the differences between nisin and the fractions with Kd of 0.4 were less pronounced, but still presented the desired inhibitory properties against spore germination.
# In general terms, MIC is defined as the lowest concentration of an antimicrobial that will inhibit the visible growth of a microorganism after overnight incubation. While the MBC is the lowest concentration of the antimicrobial that will prevent the growth of a microorganism after subculture to fresh agar media free from the antibiotic or antimicrobial agent. The pool of active the fractions was tested at concentrations ranging from 0.005 to 2.5 mg/ml and nisin was used as control.
# [9] = test system: S. aureus; assay: Disc inhibition zone, S. aureus vegetative cells; type: cell-based; settings: isolated compounds at 0.5 mg/ml, Table 9; for zone of inhibition at 500 µg/mL: Staphylococcus aureus
# Method: (§2) For the antibacterial evaluations, adjusted solutions (5 μL) were transferred to sterile 6-mm diameter discs made from Whatman no. 1 filter paper, so that after solvent evaporation each disc contained 12.5 μg of solids from the enriched avocado seed extract. […] All test discs were left for about 1-2 hr in a Biological Safety Cabinet to evaporate the solvent. Suspensions of about 0.1 optical density (at 600 nm) containing approximately 1 to 2×10^8 CFU/ml of Clostridium sporogenes (ATCC 7955) vegetative cells, isolated native spores or isolated heat shocked spores were prepared as described in official protocols of Health Canada (Food Directorate, 2010). Aliquots of the suspensions (100 μL) were transferred to Petri dishes containing 15 ml of solid medium (TPGY medium) and spread evenly with a sterile plastic rod. […] The diameter of the inhibition zones (cm) around the discs were measured after 36 hrs.
# (§3) The fractions obtained from Normal phase FCPC, were then used to assess their antimicrobial activities against the growth of vegetative cells from S. aureus and B. subtilis.
# (§4) In this example, the antimicrobial activities of the same isolated compounds described in Example 10 (Table 5) were tested against the growth of vegetative cells and heat shocked spores of C. sporogenes, and on vegetative cells of S. aureus, P. aeuroginosa, E. coli. and B. subtilis as previously described in Example 1, and at a concentration of 0.5 mg/ml.
# [10] = test system: B. subtilis; assay: Disc inhibition zone, B. subtilis vegetative cells; type: cell-based; settings: Bacillus subtilis, isolated compounds at 0.5 mg/ml, Table 9, read-out: Disc inhibition zone, B. Subtillis
# Method: as §2, §3, §4
# [11] = test system: P. aeuroginosa; assay: Disc inhibition zone, P. aeuroginosa vegetative cells; type: cell-based; settings: isolated compounds at 0.5 mg/ml, Table 9
# Method: as §1
# (§5) In this example, the antimicrobial activities of the same isolated compounds described in Example 10 (Table 5) were tested against the growth of vegetative cells and heat shocked spores of C. sporogenes, and on vegetative cells of S. aureus, P. aeuroginosa, E. coli. and B. subtilis as previously described in Example 1, and at a concentration of 0.5 mg/ml. […] Since it has been reported that persin is able to inhibit fungi spore germination (Prusky et al., 1982), and in the present experiment it seems to have the lowest activity, it can be assumed that the other bioactive compound would have a higher activity against fungi spore.
# [12] = test system: E. coli; assay: Disc inhibition zone, E. coli vegetative cells; type: cell-based; settings: isolated compounds at 0.5 mg/ml, Table 9; for zone of inhibition at 500 µg/mL: Escherichia coli
# Method: as §1, §5
Structure (SMILES),zone of inhibition at 500 µg/mL [1],zone of inhibition at 500 µg/mL [2],"zone of inhibition at 500 µg/mL ([3]; 37° C, 48 hours)","zone of inhibition at 500 µg/mL ([3]; 480 h, 4° C., 20 days)",bioactivity fold lower than that of persin [4],"antimicrobial activity reduced compared with persenone A ([2]; lack of C5-C6 double bond, 0.5 mg/ml)",concentration inhibiting fungi spore germination completely [4],concentration in the artificial diet inhibiting larval feeding [5],concentration of diet with inhibitory effects on feeding [6],concentration of diet with inhibitory effects on larval growth [6],dose rate inducing lactating mammary gland necrosis [7],doses at which necrosis of myocardial fibers may occur [7],MIC [8],zone of inhibition at 500 µg/mL [9],"Disc inhibition zone, S. aureus [9]",zone of inhibition at 500 µg/mL [10],"Disc inhibition zone, P. aeuroginosa [11]",zone of inhibition at 500 µg/mL [11],zone of inhibition at 500 µg/mL [12],"Disc inhibition zone, E. coli [12]"
"C=CCCCCCCCCCCC[C@H](O)C[C@H](O)COC(C)=O [Compound 3, (2S, 4S)-1-acetoxy-2,4-dihydroxy-n-heptadeca-16-ene]",10 mm,11 mm,0 mm,0 mm,3 fold,–,–,–,–,–,–,–,–,–,–,–,–,–,–,–
"CCCCC/C=C\C/C=C\CCCCCCCC(=O)C[C@@H](O)COC(C)=O [Compound 9B, (R, 12Z, 15Z)-1-acetoxy-2-hydroxy-4-oxo-heneicosa-12,15-diene]",6 mm,10 mm,0 mm,0 mm,–,37.5%,790 µg/mL,≥ 200 µg/g,400 µg/g,200 µg/g,60 to 100 mg/kg,above 100 mg/kg,–,–,–,–,–,–,–,–
"CC/C=C/CCCCCCCCC/C=C/C(=O)C[C@@H](O)COC(C)=O (single isomer, unassigned) [Compound 6]",17 mm,19 mm,0 mm,11 mm,–,–,–,–,–,–,–,–,15.6 µg/mL,0 mm,did not show inhibitory activity,13 mm,did not show inhibitory activity,0 mm,0 mm,did not show inhibitory activity
"CCCCC/C=C\C/C=C\CCCCC/C=C/C(=O)C[C@@H](O)COC(C)=O (single isomer, unassigned) [Compound 7]",15 mm,16 mm,0 mm,11 mm,–,–,–,–,–,–,–,–,7.8 µg/mL,0 mm,did not show inhibitory activity,7 mm,did not show inhibitory activity,0 mm,0 mm,did not show inhibitory activity
"C=C/C=C/CCCCCCCCCCCC(=O)C[C@@H](O)COC(C)=O [Compound 5, (2R, 16E)-1-acetoxy-2-hydroxy-4-oxo-nonadeca-16,18-diene]",11 mm,10 mm,0 mm,0 mm,–,–,–,–,–,–,–,–,–,–,–,–,–,–,–,–
"CCCCCCCCCCCCC/C=C/C(=O)C[C@@H](O)COC(C)=O [Compound 9A, (5E)-1-acetoxy-2-hydroxy-5-nonadecen-4-one]",17 mm,19 mm,0 mm,10 mm,–,–,–,–,–,–,–,–,7.8 µg/mL,0 mm,did not show inhibitory activity,0 mm,did not show inhibitory activity,0 mm,0 mm,did not show inhibitory activity
